The target of the test is T1, human sGC α subunit and β subunit (Homo sapiens, UniProt Q02153).
T1 construct: expressed in transfected cells
T1 sequence (Q02153 1-619): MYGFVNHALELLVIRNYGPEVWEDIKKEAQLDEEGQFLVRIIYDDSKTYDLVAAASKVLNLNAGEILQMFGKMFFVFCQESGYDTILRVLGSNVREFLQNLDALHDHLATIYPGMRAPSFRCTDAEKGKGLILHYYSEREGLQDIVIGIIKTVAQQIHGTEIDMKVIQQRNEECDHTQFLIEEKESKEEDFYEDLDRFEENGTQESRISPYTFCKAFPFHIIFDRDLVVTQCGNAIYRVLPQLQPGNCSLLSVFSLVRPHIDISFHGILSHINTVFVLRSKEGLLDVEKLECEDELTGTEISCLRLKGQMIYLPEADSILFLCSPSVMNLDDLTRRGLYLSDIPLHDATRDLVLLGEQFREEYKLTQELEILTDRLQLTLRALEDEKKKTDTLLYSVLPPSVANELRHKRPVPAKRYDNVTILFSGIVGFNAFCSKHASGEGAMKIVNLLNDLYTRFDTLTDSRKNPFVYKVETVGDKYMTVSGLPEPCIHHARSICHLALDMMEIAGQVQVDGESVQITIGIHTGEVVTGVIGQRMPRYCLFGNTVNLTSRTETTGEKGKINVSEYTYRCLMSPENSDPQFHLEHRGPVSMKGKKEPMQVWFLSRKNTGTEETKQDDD
T1 sequence (Q02108 1-690 partner): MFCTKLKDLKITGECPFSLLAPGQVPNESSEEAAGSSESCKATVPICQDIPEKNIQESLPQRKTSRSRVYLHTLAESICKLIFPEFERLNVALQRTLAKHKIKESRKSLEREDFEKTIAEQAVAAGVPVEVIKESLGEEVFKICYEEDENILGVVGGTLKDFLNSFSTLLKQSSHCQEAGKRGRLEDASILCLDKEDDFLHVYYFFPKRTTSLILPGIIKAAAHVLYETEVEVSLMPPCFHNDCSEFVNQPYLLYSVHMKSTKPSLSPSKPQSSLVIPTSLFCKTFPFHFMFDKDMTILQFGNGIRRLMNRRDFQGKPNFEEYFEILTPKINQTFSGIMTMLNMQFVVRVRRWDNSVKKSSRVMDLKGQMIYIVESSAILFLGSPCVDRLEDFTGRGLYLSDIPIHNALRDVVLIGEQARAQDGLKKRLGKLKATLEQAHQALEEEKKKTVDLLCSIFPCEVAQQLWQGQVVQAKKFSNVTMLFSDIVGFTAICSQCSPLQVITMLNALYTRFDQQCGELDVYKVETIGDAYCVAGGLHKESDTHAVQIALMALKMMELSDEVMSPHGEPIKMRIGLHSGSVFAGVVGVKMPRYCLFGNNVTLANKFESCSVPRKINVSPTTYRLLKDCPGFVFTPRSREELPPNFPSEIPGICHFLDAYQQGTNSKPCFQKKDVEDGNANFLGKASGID
The test can be described thus: Maximum effect of sGC activating function (Ca2+ fluorescence in CHO-K1 cells expressing human sGC and mouse CNGA2). It counts as cell-based. The settings on record: increase ratio of sGC activity vs control solution at 10 μmol/L test compound. A digest of the protocol:
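CHO-K1 cells stably expressing human sGC α/β and mouse CNGA2 were FURA2-AM loaded and then treated with compound at 10 μmol/L for 10 min at RT, in buffer containing 100 μmol/L IBMX, with or without 10 μmol/L ODQ. Ca²⁺ was read as the 340/380 nm excitation ratio. Activity is the % increase over the DMSO control.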

The mark [1] stands for this setting: ODQ not contained, read-out: Emax (%) ODQ− (Heme-dependent).
The mark [2] stands for this setting: with 10 μmol/L ODQ, read-out: Emax (%) ODQ+ (Heme-independent).

Molecules are shown by their SMILES. Where two headings read alike, the source gives them in different places.

Broadly, the Emax is the size of the effect at its maximum, as opposed to the concentration needed.

In the case of `O=C(O)CCCCN(CCc1ccccc1OCc1ccc(CCc2ccccc2)cc1)Cc1ccc(C(=O)O)cc1` [Cinaciguat, reference compound], the Emax at 10 µM runs as follows: under setting [1], 53%; under setting [2], 86%.
Turning to `O=C(O)CCCCN(CCc1ccccc1OCc1ccc(SCc2ccccc2)cc1)C1CCCc2cc(C(=O)O)ccc21` (stereo not drawn) [Example 15, 5-{N-[2-[2-(4-Benzylsulfanylbenzyloxyl)phenyl]ethyl]-N-(4-carboxybutyl)amino}-5,6,7,8-tetrahydronaphthalene-2-carboxylic acid], the Emax at 10 µM amounted to 101% under setting [1] and 99.9% under setting [2].
As for `O=C(O)CCCCN(CCc1ccccc1OCc1cccc2c1CCCC2)C1CCCc2cc(C(=O)O)ccc21` (stereo not drawn) [Example 29, 5-{N-(4-Carboxybutyl)-N-[2-[2-(5,6,7,8-tetrahydronaphthalene-1-ylmethoxy)phenyl]ethyl]amino}-5,6,7,8-tetrahydronaphthalene-2-carboxylic acid], the Emax at 10 µM is 141% under setting [1] and 133% under setting [2].

The record behind these values is patent US9290440B2, “Bicyclic compound” (TOA EIYO LTD., priority 2012, dated 2016).
